Laboratory results as given in publication PMC9604483, “Crystal Structure of CYP3A4 Complexed with Fluorol Identifies the Substrate Access Channel as a High-Affinity Ligand Binding Site” (International Journal of Molecular Sciences, 2022).

Experiments:
[1] = target: T1, T224A CYP3A4 (Homo sapiens, UniProt P08684, T224A); test: Fluorol oxidation in a reconstituted system with cytochrome P450 reductase; format: in vitro ADME; details: 25 μM fluorol, 1 μM CYP3A4, 2 μM CPR, 37 °C; substrate/product ratio
T1 construct: made in house
T1 sequence (P08684 with tags, fused parts or gaps T224A): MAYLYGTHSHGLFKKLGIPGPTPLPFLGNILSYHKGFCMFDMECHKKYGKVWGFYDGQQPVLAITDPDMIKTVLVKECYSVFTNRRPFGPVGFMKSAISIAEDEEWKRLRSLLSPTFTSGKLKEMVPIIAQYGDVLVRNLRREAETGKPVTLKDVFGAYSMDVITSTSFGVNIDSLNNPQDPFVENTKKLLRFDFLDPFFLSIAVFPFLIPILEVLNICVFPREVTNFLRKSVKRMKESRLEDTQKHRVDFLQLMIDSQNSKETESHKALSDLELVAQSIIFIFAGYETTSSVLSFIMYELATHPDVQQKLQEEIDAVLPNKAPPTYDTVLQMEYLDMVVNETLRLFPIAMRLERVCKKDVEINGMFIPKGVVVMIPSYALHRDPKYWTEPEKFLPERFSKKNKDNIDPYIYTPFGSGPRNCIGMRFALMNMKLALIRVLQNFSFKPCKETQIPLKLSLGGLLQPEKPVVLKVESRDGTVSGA
Procedure: This possibility was tested in a reconstituted system with cytochrome P450 reductase. […] The mass shift of +16 Da implies that fluorol undergoes a single-site oxidation.
Fluorol metabolism—Oxidation of fluorol by WT and T224A CYP3A4 was assessed in a reconstituted system with cytochrome P450 reductase. Reaction was carried out at 37 °C in 100 mM potassium phosphate, pH 7.4, containing catalase and superoxide dismutase (2 units/mL each), 1 μM WT or T224A CYP3A4, 2 μM CPR, NADPH regenerating system (10 mM glucose, 0.2 mM NADP^+, and 2 units/mL glucose-6-phosphate dehydrogenase), and 25 μM fluorol. After addition of 80 μM NADPH, samples were gently shaken, and 0.5 mL aliquots were taken in 15 min intervals. The reaction was stopped by adding 2 mL of dichloromethane. After 30 s vortexing, 1 mL of 0.3 M NaCl was added, and the sample was vortexed again and centrifuged for 10 min at 3000× g and 4 °C. The bottom organic phase (1 mL) was transferred to a glass vial, evaporated under the stream of nitrogen, and dissolved in 150 μL of methanol. Samples were analyzed by electrospray ionization mass spectroscopy using a Micromass LCP Premier mass spectrometer (Waters, Milford, MA, USA) in the negative ion mode, with 0.2 mL/min methanol flow. Chromatogram analysis and integrations were performed with Waters MassLynx MS software.

[2] = target: T2, WT CYP3A4 (Homo sapiens, UniProt P08684); test: Stopped-flow kinetics of CYP3A4-fluorol complex formation (fluorol emission decay); format: binding
T2 construct: made in house
T2 sequence (P08684 with tags, fused parts or gaps): as the sequence (P08684 with tags, fused parts or gaps T224A) above, with A204T counted along it
Procedure: (§1) During equilibrium titrations, fluorescence spectra were usually recorded 10–15 min after addition of CYP3A4, which could allow fluorol to adjust/change its initial binding position. To better understand the substrate/inhibitor effects, the kinetics of CYP3A4–fluorol complex formation were measured by monitoring decay of fluorol emission in a stopped-flow spectrophotometer. […] Fluorol binding to WT and T224A CYP3A4 was biphasic within the studied time interval (2 s). The rate constants for the fast and slow phases (kfast and kslow, respectively) determined for ligand-free and progesterone-bound CYP3A4 were virtually independent on fluorol concentration (Figure 5A–D). […] Likewise, kslow was elevated for ritonavir- and GS8-bound WT CYP3A4 but remained unchanged for the T224A mutant.
(§2) Kinetics of CYP3A4–fluorol complex formation were measured in a SX.18MV stopped-flow apparatus (Applied Photophysics, Leatherhead, UK) at 23 °C in 50 mM phosphate buffer, pH 7.4, containing 0.6 mg/mL β-cyclodextrin. WT or T224A CYP3A4 (2 μM) was mixed with 0.25–4 μM fluorol solution prepared from 1–3 mM stocks in DMSO. Equal amounts of DMSO were added to the protein solutions to avoid buffer-related changes in fluorol emission. Fluorescence changes were monitored with λex of 455 nm and a 495 nm cutoff emission filter. […] Kinetics were analyzed using the Igor Pro software (WaveMetrics, Oswego, OR, USA).

[3] = target: T1, T224A CYP3A4; test: as above; format: binding
Procedure: as §1, §2

[4] = design: method as in PMID 18831537; details: cited from earlier work

Efficiency of fluorol oxidation, mutant less efficient than WT [1]: ~ 20%
Decrease in amplitude of quenching ([2]; WT, in the presence of GS8, equimolar CYP3A4 and fluorol): ~ 20%
Increase in amplitude of quenching ([2]; WT, in the presence of progesterone, equimolar CYP3A4 and fluorol): ~ 40%
Decrease in amplitude of quenching ([2]; WT, in the presence of ritonavir, equimolar CYP3A4 and fluorol): ~ 20%
Fluorol binding kinetics (phases) ([2]; within 2 s): biphasic
Amplitude of quenching, larger in T224A ([3]; ligand-free and progesterone/GS8-bound T224A CYP3A4): 35–50%
Amplitude of quenching, smaller in T224A ([3]; ritonavir-bound T224A CYP3A4): 60%
Fluorol binding kinetics (phases) ([3]; within 2 s): biphasic
SMILES: CCCCNc1ccc2c3c(cccc13)C(=O)N(CCCC)C2=O [fluorol, 2-butyl-6-(butylamino)-1H-benzo[de]isoquinoline-1,3(2H)-dione]
Aqueous solubility [4]: limited aqueous solubility
